Values of other authors in patent US20180256534A1, “KETAMINE AND […] 450 INHIBITOR COMBINATIONS” (SEQUOIA PHARMACEUTICALS, INC., priority 2015, published 2018).

Tests used:
[1] = tested on: patients with major depressive disorders

SMILES: CNC1(c2ccccc2Cl)CCCCC1=O (centres unmarked) [ketamine]
- onset of rapid antidepressant effect [1]: two
- serum concentration at which psychotomimetic symptoms appear: about 50 ng/ml
